The test system of data set [1] is TNF-α. Put plainly: In-vitro cytokine inhibition in LPS-treated THP-1 cells (ELISA), TNF-α. The data set is classed as cell-based, human. The note with it: LPS 1 μg/ml, 24 h, sample 12.5 μg/mL. The protocol: (§1) For the in vitro analysis of pro-inflammatory cytokines (IL-6 and TNF-α), human leukemia THP-1 cells were seeded in a 24-well plate at a density of 4×10^5 cells/ml of RPMI medium per well. THP-1 cells were then treated with phorbol 12-myristate 13-acetate (20 ng/ml) for differentiation into macrophages for 18 h followed by a rest period of 48 h. Cells were further co-treated with test samples and 1 μg/ml of lipopolysaccharide (LPS) in a serum-free medium. Culture supernatant was harvested after 24 h for analysis of different cytokines by using OptEIA ELISA Kits from BD Biosciences. Total protein content for all the samples was calculated by using Bradford reagent from Bio-Rad Laboratories. All the samples were normalized by dividing cytokine concentration with total quantity of protein. Bergenin was reported earlier as an inhibitor of TNF-alpha and IL-6 and was therefore was used as a positive control in this assay.

The nature of data set [2]: pH dependent stability of bergenin (HPLC, 24 h). The data set is classed as physicochemical. The note with it: at pH 7.4 and above. The protocol:
The stability study was performed in pH 1.2 buffer, pH 4.0 buffer, phosphate buffer pH 6.8, phosphate buffered saline pH 7.4, SGF (pH 1.2), SIF (pH 6.8) and plasma. The % of bergenin hydrolyzed after 24 h was determined by HPLC analysis. The HPLC analysis was carried out using the method as described in example 2.

A short description of data set [3]: in vivo. Further details: species or system SD rats. The note with it: rat. How it is done:
The study was performed in male SD rats. To determine oral bioavailability of bergenin, the bergenin was administered at 5 mg/kg by IV route and at 50 mg/kg by oral route. For comparative oral pharmacokinetic study of plain extract (IIIM-160-A002) and GRSR formulation (filled in 9el capsules), the dose equivalent to 6.2 mg/kg of bergenin was administered in SD rats in both these groups. Blood samples were collected (n=3/time point) at 0.083 (IV only), 0.25, 0.5, 1, 2, 4, 8 and 24 h, post-dose. At each time point about 200 μL of blood was collected by jugular vein into a labeled microfuge tube containing 200 mM K2EDTA solution (20 μL per mL of blood) and equivalent volume of heparinized saline was replaced following sample collection. The blood samples were processed to obtain the plasma samples within 30 min of scheduled sampling time. All plasma samples were stored below −60° C. until bioanalysis. The plasma samples were analyzed for bergenin content using a fit-for purpose LC-MS/MS method with a lower limit of quantification (LLOQ) of 9.95 ng/mL. The pharmacokinetic parameters of bergenin were calculated using the non-compartmental analysis tool of validated Phoenix® WinNonlin® software (version 6.3).

Data set [4] has as its system IL-6. Put plainly: In-vitro cytokine inhibition in LPS-treated THP-1 cells (ELISA), IL-6. The note with it: LPS 1 μg/ml, 24 h, sample 12.5 μg/mL. The class given is cell-based, human. How it is done:
as §1

The conditions of data set [5]: cited from earlier work.
The conditions of data set [6]: rats; cited from earlier work.

Where two headings read alike, the source gives them in different places.

In general, inhibition refers to the relative decrease from the control value, in per cent. Low readings indicate a response near the control, high ones a response far below the control. The term bioavailability denotes dose-corrected exposure relative to a reference, in per cent. By AUC(0-t) is commonly meant exposure summed from dosing to a finite time, without extrapolation to infinity. By clearance is commonly meant the volume of plasma or blood freed of the substance per unit of time. A low value points to a low capacity for elimination. One may read the half-life as the time needed for the level to fall by half in the phase considered. Low values mean rapid decline, high ones slow decline. The Cmax is the highest concentration seen after dosing.

As for `COc1c(O)cc2c(c1O)[C@@H]1O[C@H](CO)[C@@H](O)[C@H](O)[C@H]1OC2=O` [Bergenin, bergenin], the inhibition at 12.5 µg/mL in data set [1] (Homo sapiens) is 61%. The “TNF-α (pg/mL)/total protein (μg)” value in data set [1] is on record as 2.40 ± 0.25 (pg/mL)/total protein (μg). Further, the “hydrolysis of bergenin after 24 h” value in data set [2] is given as “gets hydrolyzed to its lactone ring opened product”. Besides, the bioavailability in data set [3] (male, SD) came to 3%. In data set [3] (male, SD, iv, 5 mg/kg), the area under the curve AUC(0-t) worked out at 874 ng·h/mL, the clearance stood at 95.5 mL/min/kg, the half-life is 0.318 h and the “volume of distribution relative to normal total body water content (0.7 L/kg in rats)” value is recorded as ~1.50 fold. In data set [3] (male, SD, po, 50 mg/kg), the AUC(0-t) was 269 ng·h/mL, the concentration peaked (Cmax) at 170 ng/mL, the half-life is 1.74 h and the “median time to reach the maximum plasma concentration” value was 0.25 h. In addition, in data set [3] (iv, 5 mg/kg), the “clearance relative to normal hepatic blood flow (55 mL/min/kg in rats)” value is reported as ~1.74 folds. The compound further displayed an inhibition at 12.5 µg/mL in data set [4] (Homo sapiens) of 98%. Besides, the “IL-6 (pg/mL)/total protein (μg)” value in data set [4] is given as 0.08 ± 0.107 (pg/mL)/total protein (μg). In data set [5] (pH 1.2), the “stability at acidic pH of stomach” value is recorded as “stable”. Moreover, the “stability at intestinal pH” value in data set [5] (pH 6.8 and above) is “gets degraded”. Also, the degradation half life in data set [5] (pH 7) is 14.4 h. The degradation half life in data set [5] (pH 8) is 2.9 h. For the same compound, the “plasma half-life (t1/2)” value in data set [6] was 1 to 2 h.
